In patent US20100022509A1, “Inhibitors of MshC and Homologs Thereof, and Methods of Identifying Same” (priority 2006, published 2010):
Like-named read-outs stand apart in the source and are kept apart here. Marks after values point to notes of the source that are not given here.

Legend:
Assay type in all cases: biochemical, M. tuberculosis
MshC [1] = target: T1, MshC (Mycobacterium tuberculosis, UniProt P9WJM9); experiment: Inhibition studies of MshC ligase activity (HEPES pH 7.5, HPLC); settings: for inhibition of the ligase activity, in words: 80-1600 μM, 70 μM L-Cys and 50 μM GlcN-Ins; for % inhibition: [inhibitor] 1600 μM, 50 μM GlcN-Ins and 70 μM Cys
T1 sequence (P9WJM9 1-414): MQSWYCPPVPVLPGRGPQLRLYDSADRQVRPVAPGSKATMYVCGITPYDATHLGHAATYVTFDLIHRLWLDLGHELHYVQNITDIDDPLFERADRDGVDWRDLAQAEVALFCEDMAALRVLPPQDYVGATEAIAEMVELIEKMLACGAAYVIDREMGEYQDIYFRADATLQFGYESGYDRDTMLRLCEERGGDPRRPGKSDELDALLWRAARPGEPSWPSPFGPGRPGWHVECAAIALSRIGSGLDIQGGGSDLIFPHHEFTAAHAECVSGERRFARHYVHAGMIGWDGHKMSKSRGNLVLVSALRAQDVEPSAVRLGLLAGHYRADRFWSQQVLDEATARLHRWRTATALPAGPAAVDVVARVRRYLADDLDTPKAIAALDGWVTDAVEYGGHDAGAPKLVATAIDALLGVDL

MshC [2] = target: T1, MshC; settings: for activity as alternative substrate to Cys, in words: 80 μM to 1.6 mM
MshC [3] = target: T1, MshC; experiment: biochemical; settings: for IC50: IC50, μM; for inhibition of MshC in words, compounds grouped by X: X=S, X=SO, X=SO2

CC(=O)N[C@@H](CS)C(=O)O [AcCys, N-acetylcysteine]
inhibition of the ligase activity, in words (MshC [1]): minor inhibition | % inhibition (MshC [1]): 20 ± 6% | relative spec. act. (MshC [2]): ≦0.24 | activity as alternative substrate to Cys, in words (MshC [2]): Nor was significant activity detected

N[C@@H](CS)C(=O)O [Cys, L-cysteine]
apparent Vmax (MshC [2]): 1450 ± 200 nmol/min/mg | Specific activity (MshC [2]; Cys 70 μM, 50 μM GlcN-Ins, 37° C.): ^cSpecific activity 108 nmol min^−1 mg^−1. | relative spec. act. (MshC [2]; Cys 70 μM, reference): (100)^c | Km (MshC [2]; as stated in the feedback inhibition paragraph, read-out: apparent Km value for Cys): 70 ± 15 µM | Km (MshC [2]; pH 7.5, read-out: apparent Km for L-Cys): 85 ± 20 µM

N[C@@H](CS)C(=O)N[C@H]1[C@@H](OC2[C@H](O)[C@H](O)C(O)[C@H](O)[C@H]2O)O[C@H](CO)[C@@H](O)[C@@H]1O (stereo partly shown) [Cys-GlcN-Ins, cysteinyl glucosaminyl inositol]
inhibition (feedback) (MshC [1]): < 1.0%

N[C@H](CS)C(=O)O [D-Cys]
inhibition of the ligase activity, in words (MshC [1]): very minor inhibition | % inhibition (MshC [1]): 15 ± 8% | relative spec. act. (MshC [2]): ≦0.7 | activity as alternative substrate to Cys, in words (MshC [2]): poor substrate

N[C@H]1C(O)O[C@H](CO)[C@@H](O)[C@@H]1O (stereo partly drawn) [D-GlcN]
activity relative to GlcN-Ins (MshC [2]): ~1% | relative spec. act. (MshC [2]): 1.2

N[C@H]1[C@@H](O[C@@H]2[C@H](O)[C@H](O)[C@@H](O)[C@H](O)[C@H]2O)O[C@H](CO)[C@@H](O)[C@@H]1O [GlcN-Ins, 1-O-(2-amino-2-deoxy-α-D-glucopyranosyl)-D-myo-inositol]
apparent Vmax (MshC [2]; GlcN-Ins varied, 1 mM ATP and 0.5 mM Cys): 1160 ± 120 nmol/min/mg | Km (MshC [2]; pH 7.5, read-out: apparent Km for GlcN-Ins): 280 ± 43 µM

CCC1CCCCN1CCCNC(=O)c1ccc2c(c1)N(Cc1ccccc1F)C(=O)c1ccccc1[S+]2[O-] (stereo not shown) [Inhibitor 1137]
inhibition of MshC in words, 1,3-diaminopropyl residue with remote amino residue capable of protonation (MshC [3]): measurable inhibition | inhibition of MshC in words, Z is a benzyl moiety bearing one or more halogens (MshC [3]): Measurable inhibition | IC50 (MshC [3]): 1400 ± 700 µM | inhibition of MshC in words, compounds grouped by X (MshC [3]): Significant inhibition

CC1CC(C)CN(CCCNC(=O)c2ccc3c(c2)N(Cc2ccccc2F)C(=O)c2ccccc2S3(=O)=O)C1 (stereo not shown) [Inhibitor 1138]
IC50 (MshC [3]): > 3000 µM

Cc1ccc(C)c(CN2C(=O)c3ccccc3S(=O)(=O)c3ccc(C(=O)NCCN4CCCCC4)cc32)c1 [Inhibitor 1173]
IC50 (MshC [3]): > 2000 µM

Cc1ccc(CN2C(=O)c3ccccc3Sc3ccc(C(=O)NCC(C)CN4CCC(C)CC4)cc32)cc1 (stereo not shown) [Inhibitor 1671]
IC50 (MshC [3]): > 3000 µM

Cc1ccc(CN2C(=O)c3ccccc3Sc3ccc(C(=O)NCCCN4CC(C)CC(C)C4)cc32)cc1 (stereo not shown) [Inhibitor 1672]
IC50 (MshC [3]): > 3000 µM

CCN1C(=O)c2ccccc2Sc2ccc(C(=O)NCCCN(CC(C)C)CC(C)C)cc21 [Inhibitor 1751]
IC50 (MshC [3]): > 3000 µM

CCN1C(=O)c2ccccc2Sc2ccc(C(=O)NCCCN3CCCCC3)cc21 [Inhibitor 1754]
IC50 (MshC [3]): ~2000 µM | inhibition of MshC in words, compounds grouped by X (MshC [3]): Significant inhibition

O=C(NCCCN1CCCCC1)c1ccc2c(c1)N(Cc1cccc(Cl)c1)C(=O)c1ccccc1S2 [Inhibitor 1776]
inhibition of MshC in words, 1,3-diaminopropyl residue with remote amino residue capable of protonation (MshC [3]): measurable inhibition | inhibition of MshC in words, Z is a benzyl moiety bearing one or more halogens (MshC [3]): Measurable inhibition | IC50 (MshC [3]): 320 ± 50 µM | inhibition of MshC in words, compounds grouped by X (MshC [3]): Significant inhibition

O=C(NCCCN1CCCC1)c1ccc2c(c1)N(Cc1cccc(Cl)c1)C(=O)c1ccccc1S2 [Inhibitor 1779]
inhibition of MshC in words, 1,3-diaminopropyl residue with remote amino residue capable of protonation (MshC [3]): measurable inhibition | inhibition of MshC in words, Z is a benzyl moiety bearing one or more halogens (MshC [3]): Measurable inhibition | IC50 (MshC [3]): 135 ± 30 µM | inhibition of MshC in words, compounds grouped by X (MshC [3]): Significant inhibition

O=C(NCc1cccs1)c1ccc2c(c1)N(Cc1cccc(Cl)c1)C(=O)c1ccccc1S2 [Inhibitor 1781]
IC50 (MshC [3]): > 3000 µM

CCC1CCCCN1CCNC(=O)c1ccc2c(c1)N(Cc1ccc(F)cc1Cl)C(=O)c1ccccc1S2 (stereo not shown) [Inhibitor 1806]
inhibition of MshC in words, Z is a benzyl moiety bearing one or more halogens (MshC [3]): Measurable inhibition | IC50 (MshC [3]): ~750 µM | inhibition of MshC in words, compounds grouped by X (MshC [3]): Significant inhibition

CN(CCCNC(=O)c1ccc2c(c1)N(Cc1ccccc1Cl)C(=O)c1ccccc1S2)c1ccccc1 [Inhibitor 1920]
inhibition of MshC in words, compounds lacking the basic amino group or with groups in excess of 10 carbons on the remote amino residue (MshC [3]): little or no inhibition | IC50 (MshC [3]): > 3000 µM
